This note sets out measurements from PubChem BioAssay (NCI).

Some test systems named below: BT-549 breast; HCC-2998 colon; HCT-15 colon; MCF7 breast; OVCAR-8 ovarian; RXF 393 renal; SF-268 CNS; SF-539 CNS; TK-10 renal; UACC-62 melanoma.
Assay in all cases: growth of human tumour cells (NCI), 48 h

“And” between values parts separate entries of the source, which are not always exact repeats. Identical values can stand only once.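 Step 1: Grow cells in 96-well plates. Step 2: Expose to compound for 48 hours at 5 concentrations. Step 3: Interpolate endpoints linearly; if unreached, use highest concentration. Abbreviation: GI50, concentration required for 50% inhibition of growth. TGI: concentration producing complete growth inhibition.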

Consider `O=[N+]([O-])O.[NH-]C1CCCCC1[NH-].[NH-]C1CCCCC1[NH-].[NH-]C1CCCCC1[NH-].[OH-].[OH-].[OH-].[Pt+4].[Pt+4].[Pt+4]` (centres undefined), for which the GI50 was 3.02 µM in the experiment on BT-549 breast; 2.09 µM with HCC-2998 colon; 0.223 µM with HCT-15 colon; 0.157 µM in the experiment with MCF7 breast; 0.382 µM in the experiment on OVCAR-8 ovarian; 1.2 µM with RXF 393 renal. The GI50 in the experiment on SF-268 CNS is 0.791 µM; in the experiment with SF-539 CNS, 1.31 µM; with TK-10 renal it was 2.2 µM; with UACC-62 melanoma, 0.3 µM. Also, the TGI in the experiment on BT-549 breast was > 62.5 µM; in the experiment on HCC-2998 colon, 19 µM; in the experiment with HCT-15 colon, > 43.5 µM; in the experiment with MCF7 breast, > 45.6 µM; in the experiment with OVCAR-8 ovarian it was > 74.1 µM; with RXF 393 renal, 17.3 µM. The TGI with SF-268 CNS was > 50.2 µM; in the experiment on SF-539 CNS, > 68.8 µM; with TK-10 renal, 28.9 µM; in the experiment on UACC-62 melanoma it was 16.5 µM.

As to `CC(C)C[C@H](NC(=O)[C@@H](O)[C@H](N)Cc1ccccc1)C(=O)O`, in the experiment on BT-549 breast, the GI50 was > 100 µM. Further, the TGI in the experiment with BT-549 breast, in the experiment with HCC-2998 colon, in the experiment with HCT-15 colon, in the experiment with MCF7 breast, in the experiment with OVCAR-8 ovarian and in the experiment with RXF 393 renal was > 100 µM in each case. In addition, the TGI with SF-268 CNS, in the experiment on SF-539 CNS, with TK-10 renal and in the experiment with UACC-62 melanoma was > 100 µM in each case.

Regarding `O=C(CN=Cc1cccs1)CSC(c1ccccc1)c1ccccc1`, the GI50 in the experiment on BT-549 breast was 18.4 µM; with HCC-2998 colon, 29.3 µM; in the experiment with HCT-15 colon, 17.7 µM; with MCF7 breast, 18.8 µM; in the experiment with OVCAR-8 ovarian it was 22.6 µM; in the experiment with RXF 393 renal, 17.1 µM. The GI50 in the experiment with SF-268 CNS is 50.1 µM; in the experiment with SF-539 CNS, 26.6 µM; with TK-10 renal, 30.5 µM; in the experiment with UACC-62 melanoma, 16.2 µM. The TGI was found to be 40 µM with BT-549 breast; 93.3 µM in the experiment with HCC-2998 colon; 57.3 µM in the experiment on HCT-15 colon; 52.6 µM in the experiment on MCF7 breast; 55.5 µM in the experiment with OVCAR-8 ovarian; 44.1 µM with RXF 393 renal. Further, the TGI is > 100 µM in the experiment with SF-268 CNS, 71.1 µM in the experiment with SF-539 CNS, > 100 µM in the experiment with TK-10 renal and 36.9 µM with UACC-62 melanoma.

`CCCCCCCCCCCCCCCC(=O)OCC1OC(n2ccc(N)nc2=O)C(O)C1O` (centres undefined): the TGI with BT-549 breast, in the experiment with HCC-2998 colon, in the experiment with HCT-15 colon, in the experiment with MCF7 breast, with OVCAR-8 ovarian and in the experiment with RXF 393 renal was > 100 µM throughout. The TGI with SF-268 CNS, with SF-539 CNS, with TK-10 renal and with UACC-62 melanoma was > 100 µM each time.

Turning to `CC(C)(C)NCCC(O)c1cc(C(F)(F)F)nc2c(C(F)(F)F)cccc12` (centres undefined), the TGI is 23.2 µM in the experiment with BT-549 breast; 8.73 µM in the experiment with HCC-2998 colon; 21 µM in the experiment on HCT-15 colon; 27.6 µM with MCF7 breast; 17.8 µM in the experiment with OVCAR-8 ovarian; 19.2 µM with RXF 393 renal. Besides, the TGI in the experiment with SF-268 CNS was 24.2 µM; with SF-539 CNS it was 31 µM; in the experiment with TK-10 renal it was 24.8 µM; in the experiment on UACC-62 melanoma, 25.3 µM.

Regarding `CC[C@@]1(OC(=O)CN(C)C)C(=O)OCc2c1cc1n(c2=O)Cc2cc3ccccc3nc2-1`, the GI50 with BT-549 breast was 0.116 µM; in the experiment with HCC-2998 colon, 0.322 µM; in the experiment with HCT-15 colon, 0.257 µM; in the experiment on MCF7 breast, 0.0235 µM; in the experiment on OVCAR-8 ovarian it was 0.0521 µM; with RXF 393 renal, 0.0665 µM. Moreover, the GI50 with SF-268 CNS is 0.0464 µM; with SF-539 CNS, < 0.0167 µM; in the experiment with TK-10 renal, 0.481 µM; with UACC-62 melanoma, < 0.012 µM. Further, the TGI in the experiment on BT-549 breast was 4.09 µM and 8.64 µM; in the experiment on HCC-2998 colon, 1.32 µM and 1.76 µM; with HCT-15 colon it was 5.03 µM and 3.09 µM; in the experiment with MCF7 breast, > 100 µM; in the experiment with RXF 393 renal it was 0.643 µM and 0.43 µM; with SF-539 CNS it was 0.0572 µM and 0.315 µM. Moreover, the TGI is 7.85 µM in the experiment on TK-10 renal; 0.116 µM and 0.132 µM in the experiment on UACC-62 melanoma.

As for `Nc1ccc2c(c1)CN1C(=O)c3ccccc3C1=N2`, the TGI was > 125 µM in the experiment on BT-549 breast; > 125 µM in the experiment with HCC-2998 colon; > 125 µM in the experiment with HCT-15 colon; > 78.9 µM in the experiment with MCF7 breast; 115 µM in the experiment with OVCAR-8 ovarian; 102 µM in the experiment on RXF 393 renal. Further, the TGI was 108 µM in the experiment with SF-268 CNS, 95.8 µM with SF-539 CNS, > 125 µM in the experiment on TK-10 renal and > 116 µM in the experiment with UACC-62 melanoma. Besides, the GI50 in the experiment with HCT-15 colon is 42.4 µM; with SF-268 CNS, 58.6 µM; in the experiment on SF-539 CNS, 5.29 µM; in the experiment on TK-10 renal, 16.8 µM; with UACC-62 melanoma, 52.9 µM.
